One test addresses T1, MT1 wildtype (WT) (Homo sapiens, UniProt P48039).
T1 construct: host or cells: HTLA cells (HEKT based)
As to the kind of experiment: Tango β-arrestin recruitment assay, MT1 wildtype. In kind it is cell-based. The conditions noted are these: normalized individually (basal 0%, maximum 100%); mean ± SEM, minimum of 3 assays; read-out: pEC50, Tango, MT1 WT (converted). As to the method: (§1) In brief, HTLA cells were transiently transfected with receptor TANGO DNA constructs overnight in DMEM with 10% FBS. Transfected cells were then plated into poly-L-Lys coated 384-well plates using DMEM supplemented with 1% dialyzed FBS. After 6 hr incubation, drug dilutions, prepared in DMEM with 1% dFBS, were added for incubation overnight (16–20 hr). Medium and drug solutions were removed, Bright-Glo reagent (20 uL/well) was added for luminescence counting 20 min later. Results were analyzed in GraphPad Prism 7.0.
A general note: Activated receptors often draw arrestin, which recruitment assays turn into a signal.

Test [1] has as its target T2, MT2 (Homo sapiens, UniProt P49286).
T2 sequence (P49286 1-362): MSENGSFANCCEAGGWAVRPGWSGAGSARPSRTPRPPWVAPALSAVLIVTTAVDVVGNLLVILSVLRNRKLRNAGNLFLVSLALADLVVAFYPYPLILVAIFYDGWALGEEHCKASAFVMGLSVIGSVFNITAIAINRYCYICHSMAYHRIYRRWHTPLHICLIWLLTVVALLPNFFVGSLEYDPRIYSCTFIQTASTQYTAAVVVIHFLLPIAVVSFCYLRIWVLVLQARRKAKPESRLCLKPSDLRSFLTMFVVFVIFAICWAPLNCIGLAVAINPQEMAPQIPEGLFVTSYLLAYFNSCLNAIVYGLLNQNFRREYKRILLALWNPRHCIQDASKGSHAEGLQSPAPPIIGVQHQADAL
As to the kind of experiment: GloSensor Gi/o-mediated cAMP production inhibition assay, MT2. On the set-up: expressed in transfected cells; host or cells: HEK293T (ATCC CRL-11268), transient transfection. In kind it is cell-based. The conditions noted are these: for EC50: Gi/o mediated. As to the method:
(§2) Briefly, HEK293 T cells (as above) were transiently co-transfected with receptor (MT1 or MT2) and GloSensor cAMP (Promega) plasmids overnight, plated in Poly-L-Lysine coated 384-well white clear bottom plates in DMEM + 1% dialyzed FBS. Cells were used for assays at a minimum of 6 hr after plating. Culture medium was first removed and cells were stimulated with drugs in assay buffer (1x HBSS, 20 mM HEPES, 1 mg/ml BSA, 0.1 mg/ml ascorbic acid, pH 7.4) for 15 min at room temperature (this and all the following steps), followed by addition of a mixture of isoproterenol (final of 100 nM) and luciferin (final of 1 mM) for Gi/o-cAMP production inhibition assays and luciferin (final of 1 mM) for Gs-cAMP production assays. The plates were counted for luminescence after 25 min in a luminescence plate reader. Results were analyzed using GraphPad Prism 7.0.
(cAMP levels reflect the balance of adenylyl cyclase and phosphodiesterase activity.)

Another test concerns the target T3, 5-HT7A (Homo sapiens, UniProt P34969).
T3 construct: expressed in transfected cells; host or cells: HEK293T, transient transfection (NIMH PDSP)
Put plainly: Off-target radioligand binding, 5-HT7A. On the procedure: The Radioligand binding assays were conducted by the NIMH Psychoactive Drug Screening Program (PDSP). The NIMH PDSP is directed by Bryan L. Roth, MD, PhD, at the University of North Carolina at Chapel Hill, North Carolina, and Program Officer Jamie Driscoll at NIMH, Bethesda, MD. Binding assay procedures and protocols are also available online at http://pdspdb.unc.edu/pdspWeb/?site=assays. […] Assay plates were sealed and incubated for 4 hr at 37°C in a humidified incubator until harvesting. Plates were harvested using vacuum filtration onto 0.3% polyethyleneimine pre-soaked 96-well Filtermat A (PerkinElmer) and washed three times with cold wash buffer (50 mM Tris, pH 7.4). Filters were dried and melted with a scintillation cocktail (Meltilex, PerkinElmer). Radioactivity was counted using a Wallac TriLux Microbeta counter (PerkinElmer). Results were analyzed using GraphPad Prism 7.0.

For a further test, the target named is T4, MT1 (Homo sapiens, UniProt P48039).
T4 construct: expressed in transfected cells; host or cells: HEK293T (ATCC CRL-11268), transient transfection
Put plainly: GloSensor Gi/o-mediated cAMP production inhibition assay, MT1. It counts as cell-based. The conditions noted are these: for EC50: Gi/o mediated. As to the method:
as §2

Test [2] deals with T2, MT2. As to the kind of experiment: Tango β-arrestin recruitment assay, MT2. On the set-up: expressed in transfected cells; transient transfection. Conditions: result in words; compared to G-protein. In kind it is cell-based. On the procedure: as §1, with “Tango arrestin recruitment assays were carried out according to the previously published procedure [Kroeze et al. (2015)]. In” for “In”

For test [3], the target named is T5, MT1 Y281F mutant receptor (Homo sapiens, UniProt P48039, Y281F).
T5 construct: expressed in transfected cells; host or cells: HTLA cells (HEKT based)
As to the kind of experiment: Tango β-arrestin recruitment assay, MT1 Y281F mutant. In kind it is cell-based. On the procedure: as §1

The mark [4] stands for this setting: ligand efficiency (based on EC50).

“Also recorded” adds a separate entry of the source. Like-named read-outs stand apart in the source and are kept apart here.

T4 sequence (P48039 whole entry): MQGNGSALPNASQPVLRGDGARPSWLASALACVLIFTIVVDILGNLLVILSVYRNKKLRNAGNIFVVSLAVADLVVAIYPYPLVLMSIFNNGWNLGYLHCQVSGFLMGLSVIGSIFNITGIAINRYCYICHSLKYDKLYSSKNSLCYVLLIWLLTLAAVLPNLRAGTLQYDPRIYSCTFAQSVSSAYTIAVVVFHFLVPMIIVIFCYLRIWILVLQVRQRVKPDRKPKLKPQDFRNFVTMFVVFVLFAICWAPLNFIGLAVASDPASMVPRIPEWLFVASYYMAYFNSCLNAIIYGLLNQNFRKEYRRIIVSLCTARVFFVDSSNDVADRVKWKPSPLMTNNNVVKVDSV
T3 sequence (P34969 1-445 isoform P34969-2): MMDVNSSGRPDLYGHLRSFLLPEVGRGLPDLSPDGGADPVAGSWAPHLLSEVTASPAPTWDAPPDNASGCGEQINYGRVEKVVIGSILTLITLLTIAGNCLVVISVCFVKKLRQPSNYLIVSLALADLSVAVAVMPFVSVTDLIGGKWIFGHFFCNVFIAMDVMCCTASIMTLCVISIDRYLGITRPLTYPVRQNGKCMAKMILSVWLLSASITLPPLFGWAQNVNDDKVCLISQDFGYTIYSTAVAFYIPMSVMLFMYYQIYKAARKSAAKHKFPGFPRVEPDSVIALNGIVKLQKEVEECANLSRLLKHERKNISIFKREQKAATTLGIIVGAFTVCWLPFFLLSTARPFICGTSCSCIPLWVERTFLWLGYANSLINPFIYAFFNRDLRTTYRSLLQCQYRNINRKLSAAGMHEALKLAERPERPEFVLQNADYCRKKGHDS
T5 sequence (P48039 whole entry Y281F): as the sequence (P48039 whole entry) above, with Y281F counted along it
T1 sequence (P48039 whole entry): as the sequence (P48039 whole entry) above

As to `COc1ccc2[nH]cc(CCNC(N)=O)c2c1` [Compound 28, [2-(5-methoxy-1H-indol-3-yl)ethyl]urea], the EC50 at MT1 wildtype (WT) is 22.9 nM; on MT2 [1] (SEM, N = 3, read-out: MT2 pEC50 ± SEM (converted)) it was 0.0447 nM; on MT2 [1] (read-out: MT2 EC50), 0.04 nM; on MT1 (SEM, N = 3, read-out: MT1 pEC50 ± SEM (converted)), 0.0407 nM; at MT1 (read-out: MT1 EC50), 0.04 nM; in test [3] (normalized individually (basal 0%, maximum 100%), mean ± SEM, minimum of 3 assays, read-out: pEC50, Tango, MT1 Y281F (converted)), 4.68 µM. In addition, the “MT2/MT1 Selectivity” value at MT2 [1] (Antilog (log(Emax/EC50) MT2 - log (Emax/EC50) MT1), values below 1 = MT1 selectivity) was determined as 0.7 fold. The Emax (commonly the maximal effect, on the per cent scale that the assay sets) at MT2 [1] (MT2, activation compared to melatonin, read-out: MT2 Emax ± SEM) is < 70%; on MT1 (read-out: MT1 Emax ± SEM), 95.3 ± 2.6%. Moreover, the “MT2 LE” value at MT2 [1] (setting [4]) is reported as 0.85 kcal/mol per non-hydrogen atom. The inhibition (usually the drop in the measured response relative to a control, in per cent) at 10 µM at 5-HT7A (10 μM) was > 50%. Also, on 5-HT7A (read-out: pKi, 5-HT7A (converted)), the Ki is 288 nM. Also, the “MT1 LE” value on MT1 (setting [4]) is 0.86 kcal/mol per non-hydrogen atom. In addition, the “β-arrestin signaling / arrestin recruitment at MT2” value at MT2 [2] was “dramatically reduced arrestin recruitment; also recorded: marked reduction in β-arrestin signaling compared to G-protein”. The “reduction of potency, MT1 Y281F versus WT” value in test [3] (Tango) is given as > 100 fold.

Source of the values: article PMC7080406 (eLife, 2020).
